The test system of one assay is IL-5. Briefly: Cytokine suppression using whole human blood: IL-5 (CytoStim and CD28 antibody stimulus). The note with it: read-out: IL-5 Inhibitory Activity, Human Whole Blood (Test Example 3). It is filed as cell-based. The method, then:
(§1) The test compound dissolved in dimethyl sulfoxide was added to a 96-well plate, and RPMI-1640 medium and human peripheral blood containing sodium heparin were added, followed by culture at 37° C. under 5% CO2 for 1 hour. A medium containing only dimethyl sulfoxide instead of the test compound was added to the control well. […]
(§2) After collecting the culture supernatant after culturing, the amount of each cytokine was measured by the sandwich ELISA method. […]
(§3) The measurement results obtained by measuring the TNFα inhibitory activity and IL-5 inhibitory activity (50% inhibitory concentration) of the test compounds by the above method were evaluated in accordance with the following evaluated basis; A: less than 100 nM, B: 100 nM or more and less than 500 nM, and C: 500 nM or more. In addition, the measurement results obtained by measuring the IL-17A inhibitory activity and IL-4 inhibitory activity (50% inhibitory concentration) of the test compounds were evaluated in accordance with the following evaluated basis; A: less than 500 nM, B: 500 nM or more and less than 5000 nM, and C: 5000 nM or more.

The subject of another assay is IL-23. Briefly: Cytokine suppression using human peripheral blood mononuclear cells: IL-23. It is filed as cell-based. The note with it: human PBMC, lipopolysaccharide 1 ng/mL; read-out: IL-23 Inhibitory Activity, Human PBMC (Test Example 4). The method, then:
First, peripheral blood mononuclear cells (PBMC) were separated from whole blood by specific gravity centrifugation. Then, the isolated peripheral blood mononuclear cells were added to RPMI-1640 medium (containing 10% fetal bovine serum, penicillin, streptomycin, L-glutamine, and 2-mercaptoethanol), and cultured in a 96-well plate at 37° C. under 5% CO2 for 0 to 1 hour. The test compound dissolved in dimethyl sulfoxide was added to each well, followed by further culture at 37° C. under 5% CO2 for 1 hour. A medium containing only dimethyl sulfoxide instead of the test compound was added to the control well. […]
The measurement results obtained by measuring the TNFα inhibitory activity and IL-5 inhibitory activity (50% inhibitory concentration) of the test compounds by the above method were evaluated in accordance with the following evaluated basis; A: less than 10 nM, B: 10 nM or more and less than 100 nM, and C: 100 nM or more. In addition, the measurement results obtained by measuring the IL-17A inhibitory activity, IL-23 inhibitory activity, IL-4 inhibitory activity, and IL-13 inhibitory activity (50% inhibitory concentration) of the test compounds were evaluated in accordance with the following evaluated basis; A: less than 500 nM, B: 500 nM or more and less than 5000 nM, and C: 5000 nM or more.

Another assay concerns IL-4. Briefly: Cytokine suppression using whole human blood: IL-4 (CytoStim and CD28 antibody stimulus). In kind it is cell-based. Particulars: read-out: IL-4 Inhibitory Activity, Human Whole Blood (Test Example 3). The method, then:
as §1, §2, §3

Assay [1] relates to histamine-induced vascular hyperpermeability, Crl:CD1 (ICR) mice. Briefly: Histamine-induced mouse vascular hyperpermeability model. In kind it is in vivo. The note with it: 10 mg/kg orally, histamine intradermally. As for the experimental part:
Evaluation was carried out using male Crl:CD1 (ICR) mice (6 to 7 weeks of age). First, before conducting the test, the hair on the back of the mice was shaved with a small hair clipper under isoflurane anesthesia (an appropriate amount of about 3% with an inhalation isoflurane anesthesia machine). Next, the mice were orally administered with 10 mg/kg (10 mL/kg) of the test compound dissolved or suspended in 0.5% w/v methylcellulose (0.5% MC), and intravenously administered with 0.4% Evans blue saline (10 mL/kg) after 1 to 4 hours, and approximately 2 minutes later, 15 mM histamine saline was intradermally administered to the dorsal neck as a vascular hyperpermeability substance (20 μL/site). […] The absorption value (620/670 nm) of the supernatant after centrifugation was measured with a plate reader, and the average absorption value of the blank group was subtracted therefrom. Using the resultant as the absorption value of each tissue lysate, the vascular permeability suppression rate was calculated by the following formula. […]
The measurement results obtained by measuring the vascular permeability suppression rate of the test compound by the above method were evaluated in accordance with the following evaluated basis; A: 90% or more, B: 80% or more and less than 90%, and C: less than 80%. […]

Some results are limits rather than exact numbers.

As for `CC(C)(O)C(F)(F)Oc1ccc(-c2nccs2)c2oc(N3CC4CC(C3)N4)nc12` [Example 248, 1-((2-(3,6-Diazabicyclo[3.1.1]heptan-3-yl)-7-(thiazol-2-yl)benzo[d]oxazol-4-yl)oxy)-1,1-difluoro-2-methylpropan-2-ol], the IC50 in the assay on IL-5, in the assay with IL-23 and in the assay on IL-4 was below 500 nM in each case. In addition, in assay [1], the “vascular permeability suppression rate” value is given as “A (A: 90% or more)”.

With `CCOc1cc([C@@H](CS(C)(=O)=O)N2C(=O)c3cccc(NC(C)=O)c3C2=O)ccc1OC` [apremilast, reference compound], the IC50 in the assay with IL-5, in the assay on IL-23 and with IL-4 was at least 5000 nM each time. Further, the “vascular permeability suppression rate” value in assay [1] is “C (C: less than 80%)”.
